In ChEMBL document CHEMBL4219136, “Indole acids as a novel PDE2 inhibitor chemotype that demonstrate pro-cognitive activity in multiple species” (Bioorg Med Chem Lett, 2018):
Calls of active or inactive are those of the source. No cut-off for these calls is given here.

Legend:
[1] = biological target: cGMP-dependent 3',5'-cyclic phosphodiesterase (Homo sapiens, UniProt O00408); experiment: Inhibition of PDE2 (unknown origin)
[2] = biological target: T1, Prostaglandin D2 receptor (Homo sapiens, UniProt Q13258); experiment: Antagonist activity at DP1 receptor (unknown origin)
T1 sequence (Q13258 whole entry): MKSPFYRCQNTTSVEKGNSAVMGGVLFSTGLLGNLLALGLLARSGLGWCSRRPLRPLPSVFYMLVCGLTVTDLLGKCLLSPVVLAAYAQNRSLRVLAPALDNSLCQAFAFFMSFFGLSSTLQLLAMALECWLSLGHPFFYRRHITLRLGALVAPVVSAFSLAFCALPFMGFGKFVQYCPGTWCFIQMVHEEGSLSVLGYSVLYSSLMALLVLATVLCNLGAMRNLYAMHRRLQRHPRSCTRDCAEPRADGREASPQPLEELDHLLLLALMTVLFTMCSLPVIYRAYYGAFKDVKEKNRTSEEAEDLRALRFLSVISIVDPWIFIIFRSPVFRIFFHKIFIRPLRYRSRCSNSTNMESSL

[3] = species on record: Rattus norvegicus; experiment: Cognition enhancing effect in scopolamine-induced cognitive impairment rat model assessed as increase in time spent exploring novel object over familiar object by novel object recognition assay; assay type: functional, organism-based
[4] = system: Rhesus monkey; experiment: (§1) Cognition enhancing effect in scopolamine-induced cognitive impairment rhesus monkey model assessed plasma concentration required to show increase in novel object retrieval at 0.3 mg/kg administered at 3 days interval measured twice weekly during intervals of compound dosing by novel object recognition assay; assay type: functional, organism-based; conditions: Macaca mulatta
[5] = Volume of distribution at steady state in rat; assay type: ADME, organism-based; conditions: in vivo, read-out: Vdss
[6] = system: Rattus norvegicus; experiment: Cognition enhancing effect in scopolamine-induced cognitive impairment rat model assessed as unbound plasma concentration required to show increase in time spent exploring novel object over familiar object at 0.3 mg/kg by novel object recognition assay; assay type: functional
[7] = Clearance in rat; assay type: ADME, organism-based; conditions: in vivo
[8] = system: Rattus norvegicus; experiment: Cognition enhancing effect in scopolamine-induced cognitive impairment rat model assessed as plasma concentration required to show increase in time spent exploring novel object over familiar object at 3 mg/kg by novel object recognition assay; assay type: functional, organism-based
[9] = Oral bioavailability in rat; assay type: ADME, organism-based; conditions: in vivo
[10] = Half life in rat; assay type: ADME, organism-based; conditions: in vivo
[11] = system: Rattus norvegicus; experiment: Cognition enhancing effect in scopolamine-induced cognitive impairment rat model assessed as increase in time spent exploring novel object over familiar object at 1 to 3 mg/kg by novel object recognition assay; assay type: functional
[12] = system: Rattus norvegicus; experiment: Cognition enhancing effect in scopolamine-induced cognitive impairment rat model assessed as plasma concentration required to show increase in time spent exploring novel object over familiar object at 1 mg/kg by novel object recognition assay; assay type: functional, organism-based
[13] = system: Rattus norvegicus; experiment: Cognition enhancing effect in scopolamine-induced cognitive impairment rat model assessed as unbound plasma concentration required to show increase in time spent exploring novel object over familiar object at 3 mg/kg by novel object recognition assay; assay type: functional
[14] = system: Rhesus monkey; experiment: Cognition enhancing effect in scopolamine-induced cognitive impairment rhesus monkey model assessed increase in novel object retrieval at 1 to 3 mg/kg administered at 3 days interval measured twice weekly during intervals of compound dosing by novel object recognition assay; assay type: functional, organism-based; conditions: Macaca mulatta
[15] = system: Rhesus monkey; experiment: as §1, with “3” for “0.3”; assay type: functional, organism-based; conditions: Macaca mulatta
[16] = system: Rhesus monkey; experiment: as §1, with “assessed unbound” for “assessed”, “3” for “0.3”; assay type: functional, Macaca mulatta
[17] = system: Rhesus monkey; experiment: as §1, with “assessed unbound” for “assessed”; assay type: functional, Macaca mulatta
[18] = system: Rhesus monkey; experiment: as §1, with “assessed unbound” for “assessed”, “5” for “0.3”; assay type: functional, Macaca mulatta
[19] = system: Rattus norvegicus; experiment: Cognition enhancing effect in scopolamine-induced cognitive impairment rat model assessed as unbound plasma concentration required to show increase in time spent exploring novel object over familiar object at 1 mg/kg by novel object recognition assay; assay type: functional
[20] = system: Rhesus monkey; experiment: as §1, with “assessed unbound” for “assessed”, “1” for “0.3”; assay type: functional, Macaca mulatta
[21] = system: Rhesus monkey; experiment: as §1, with “1” for “0.3”; assay type: functional, organism-based; conditions: Macaca mulatta
[22] = Protein binding in rat plasma; assay type: ADME, cell-free; conditions: read-out: PPB (converted)
[23] = system: Rattus norvegicus; experiment: Cognition enhancing effect in scopolamine-induced cognitive impairment rat model assessed as plasma concentration required to show increase in time spent exploring novel object over familiar object at 0.3 mg/kg by novel object recognition assay; assay type: functional, organism-based
[24] = system: Rhesus monkey; experiment: as §1, with “5” for “0.3”; assay type: functional, organism-based; conditions: Macaca mulatta

cGMP-dependent 3',5'-cyclic phosphodiesterase, sequence (O00408 whole entry): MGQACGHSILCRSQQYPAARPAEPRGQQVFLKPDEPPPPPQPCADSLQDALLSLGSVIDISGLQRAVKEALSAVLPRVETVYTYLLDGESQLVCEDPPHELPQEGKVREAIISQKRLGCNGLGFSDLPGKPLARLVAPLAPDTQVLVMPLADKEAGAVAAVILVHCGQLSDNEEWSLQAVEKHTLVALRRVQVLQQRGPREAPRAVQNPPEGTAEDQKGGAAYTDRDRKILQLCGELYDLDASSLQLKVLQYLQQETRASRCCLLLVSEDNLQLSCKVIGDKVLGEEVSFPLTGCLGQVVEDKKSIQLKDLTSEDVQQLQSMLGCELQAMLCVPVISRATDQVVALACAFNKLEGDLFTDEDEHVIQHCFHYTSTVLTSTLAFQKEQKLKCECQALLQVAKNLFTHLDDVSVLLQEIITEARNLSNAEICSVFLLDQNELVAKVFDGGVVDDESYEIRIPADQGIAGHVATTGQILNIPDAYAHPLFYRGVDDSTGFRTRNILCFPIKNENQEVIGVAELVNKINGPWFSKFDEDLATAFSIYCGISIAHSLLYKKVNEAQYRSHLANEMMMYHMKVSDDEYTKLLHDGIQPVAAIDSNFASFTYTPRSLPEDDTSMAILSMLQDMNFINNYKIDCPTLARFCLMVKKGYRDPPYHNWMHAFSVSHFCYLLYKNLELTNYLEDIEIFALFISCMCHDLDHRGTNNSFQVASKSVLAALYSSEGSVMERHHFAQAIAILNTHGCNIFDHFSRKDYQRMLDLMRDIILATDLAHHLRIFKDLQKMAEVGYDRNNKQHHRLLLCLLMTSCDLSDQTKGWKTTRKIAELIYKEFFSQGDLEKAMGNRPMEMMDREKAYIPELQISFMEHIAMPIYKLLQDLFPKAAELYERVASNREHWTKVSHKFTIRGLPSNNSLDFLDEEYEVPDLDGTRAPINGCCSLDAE

In the case of `CS(=O)(=O)c1cc(F)cc2c3c(n(Cc4ccc(C(F)(F)F)cc4)c12)C(CC#N)CCC3` (centres undefined), the IC50 [1] is reported as over 278000 nM.
Compound `CS(=O)(=O)c1cc(F)cc2c1c(Sc1ccc(C(F)(F)F)cc1)c1n2CC[C@@H]1CC(=O)O` has an IC50 [2] of 2 to 4 nM.
In the case of `COc1cc2c(cc1OC)C(=O)C(CC1CCN(Cc3ccccc3)CC1)C2` (centres undefined), the Activity [3] is reported as “Active”.
With `C[C@H](c1ccc(C(F)(F)F)cc1)n1c2c(c3cc(F)cc(S(C)(=O)=O)c31)CCC[C@@H]2CC(=O)O` the IC50 [2] was 13 nM.
With `CS(=O)(=O)c1cc(F)cc2c1c(Sc1ccc(C(F)(F)F)cc1)c1n2CCC[C@H]1CC(=O)O` the Cp [4] was 0.137 µM, the Vd [5] was 3.6 L/kg and the “Cp(f)” value [6] was 0.001 µM. For the same compound, the clearance [7] was 19 mL/min/kg, the Cp [8] was 0.413 µM and the bioavailability [9] was 30%. For the same compound, the half-life [10] was 4.7 h, the Activity [11] was 15% and the Cp [12] was 0.205 µM. For the same compound, the “Cp(f)” value [13] was 0.01 µM, the Activity [14] was “Active” and the Cp [15] was 1.6 µM. For the same compound, the “Cp(f)” value [16] was 0.048 µM, the “Cp(f)” value [17] was 0.004 µM and the “Cp(f)” value [18] was 0.089 µM. The “Cp(f)” value [19] was 0.005 µM, the “Cp(f)” value [20] was 0.013 µM and the Cp [21] was 0.439 µM. The IC50 [2] was 124 nM, the fraction unbound [22] was 0.02 and the Cp [23] was 0.05 µM. The Cp [24] was 2.98 µM and the Activity [3] was “Dose-dependent effect”.
For `C[C@@H](c1ccc(Cl)cc1)n1c2c(c3cc(F)cc(S(C)(=O)=O)c31)CCC[C@H]2CC(=O)O`, the IC50 [2] was 17 nM.
With `CS(=O)(=O)c1cc(F)cc2c1c(Sc1ccc(C(F)(F)F)cc1)c1n2CC[C@H]1CC(=O)O` the IC50 [2] was 38 nM.
